Patent publication US20260325533A1, “CDK INHIBITOR COMPOUNDS” (ALEKSIA THERAPEUTICS, INC., priority 2023, published 2026)
Like-named read-outs stand apart in the source and are kept apart here.

What was measured:
[1] = target: CDK2/CCNE1 (Homo sapiens, UniProt P24941); assay: CDK2 homogeneous time-resolved fluorescence (HTRF) kinase assay; format: biochemical; settings: CDK2/CCNE
Procedure: (§1) A CDK homogeneous time-resolved fluorescence (HTRF) assay was used to assess the potency of the compounds described herein.
(§2) To an untreated 384-well microtiter plate (ProxiPlate) was added 100 nL 100×test compound in DMSO and 5 μL 2×CDK enzyme in assay buffer (50 mM HEPES, 1 mM EGTA, 10 mM MgCl2, 0.01% Tween 20, 2 mM DTT). The plate was centrifuged at 800 RPM for 1 min then incubated for 20 min at 23 °C. 2.5 μL per well of 4×ATP and 2.5 μL 4×ULight™-eIF4E-binding protein 1 (Thr37/46) Peptide substrate were added to all wells. After addition, the plates were centrifuged at 800 RPM for 1 min. The plates were incubated at 23 °C for 60 min. 5 μL per well 4×EDTA solution were added to each well to stop the reaction. 5 μL 4×LANCE Ultra Europium-anti-phospho-eIF4E-binding protein 1 (Thr37/46) antibody were added to each well and the plate was centrifuged for 1 min at 800 RPM. The plate was incubated for 60 min at 23 °C. Fluorescence was read at 340 nm excitation and 665 nm emission on an En Vision 2105 fluorescence reader. The final concentrations of reagents in the activity assay were 3 nM CDK2/CCNE1, 1 mM ATP, 50 nM ULight™-eIF4E-binding protein 1 (Thr37/46) Peptide substrate, 1% DMSO, 10 mM EDTA, and 2 nM LANCE Ultra Europium-anti-phospho-eIF4E-binding protein 1 (Thr37/46).
(§3) Dose-response titrations were conducted by using an 11-point, half-logarithmic serial dilution scheme typically starting at 10 μM. Signals were reported as fluorescence units at 665 nm or the ratio of fluorescence units at 665 nm/fluorescence units at 615 nm. Signals are referred to below as “Lance signals”.
(§4) Using this assay, the IC50 values of example compounds were determined. Table 3 illustrates the IC50 for various Example compounds of Formula IA. Table 4 illustrates the IC50 for various other Example compounds of Formula I. ND=not determined.

[2] = target: CDK1/CCNB1 (Homo sapiens, UniProt P06493); assay: CDK1 homogeneous time-resolved fluorescence (HTRF) kinase assay; format: biochemical; settings: CDK1/CCNB
Sequence of CDK1/CCNB1 (P06493 whole entry): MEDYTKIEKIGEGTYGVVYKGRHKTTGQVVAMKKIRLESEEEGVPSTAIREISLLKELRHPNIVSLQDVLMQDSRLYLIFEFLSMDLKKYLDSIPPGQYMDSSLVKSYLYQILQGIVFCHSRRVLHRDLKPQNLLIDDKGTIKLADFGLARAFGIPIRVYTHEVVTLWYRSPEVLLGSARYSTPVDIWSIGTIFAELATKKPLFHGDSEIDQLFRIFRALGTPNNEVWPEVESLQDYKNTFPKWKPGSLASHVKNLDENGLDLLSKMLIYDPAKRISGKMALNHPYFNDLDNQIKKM
Sequence of CDK1/CCNB1 (P14635 whole entry partner): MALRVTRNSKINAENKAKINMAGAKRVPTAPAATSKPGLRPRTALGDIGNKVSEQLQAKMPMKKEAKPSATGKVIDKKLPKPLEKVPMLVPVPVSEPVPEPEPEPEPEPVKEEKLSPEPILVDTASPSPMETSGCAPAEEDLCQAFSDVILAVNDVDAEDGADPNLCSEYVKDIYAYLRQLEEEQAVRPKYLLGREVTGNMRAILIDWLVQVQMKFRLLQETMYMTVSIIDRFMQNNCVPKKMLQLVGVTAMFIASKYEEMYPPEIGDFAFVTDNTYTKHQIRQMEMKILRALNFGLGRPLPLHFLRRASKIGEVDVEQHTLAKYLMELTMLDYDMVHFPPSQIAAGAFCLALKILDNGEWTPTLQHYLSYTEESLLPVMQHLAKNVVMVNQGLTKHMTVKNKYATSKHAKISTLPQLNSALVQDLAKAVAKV
Procedure: as §1
as §2, with “were 0.5” for “were 3”, “nM CDK1/CCNB1,” for “nM CDK2/CCNE1,”
as §3, §4

[3] = 25-250 nM marked x, read-out: CDK2/CCNE IC50 25-250 nM
[4] = >250 nM marked x, read-out: CDK1/CCNB IC50 >250 nM
[5] = <25 nM, read-out: CDK2/CCNE IC50 <25 nM
[6] = 25-250 nM marked x, read-out: CDK1/CCNB IC50 25-250 nM

| IC50 [1, 3] [nM] | IC50 [2, 4] [nM] | Structure (SMILES) | further results |
| --- | --- | --- | --- |
| 25 to 250 | > 250 | CS(=O)(=O)N1CCC(Nc2cc3c(N4CCCCC4CO)nccc3cn2)CC1 (racemic) [Ex 56, (1-(7-((1-(methylsulfonyl)piperidin-4-yl)amino)-2,6-naphthyridin-1-yl)piperidin-2-yl)methanol] | – |
| 25 to 250 | > 250 | CS(=O)(=O)N1CCC(Nc2cc3c(N4CCCC4CO)nccc3cn2)CC1 (racemic) [Ex 57, (1-(7-((1-(methylsulfonyl)piperidin-4-yl)amino)-2,6-naphthyridin-1-yl)pyrrolidin-2-yl)methanol] | – |
| 25 to 250 | > 250 | CS(=O)(=O)N1CCC(Nc2cc3c(C(=O)N4CCC(C#N)C4)nccc3cn2)CC1 (racemic) [Ex 94, 1-(7-((1-(methylsulfonyl)piperidin-4-yl)amino)-2,6-naphthyridine-1-carbonyl)pyrrolidine-3-carbonitrile] | – |
| 25 to 250 | > 250 | CS(=O)(=O)N1CCC(Nc2cc3c(C(=O)N4CCCC(C#N)C4)nccc3cn2)CC1 (racemic) [Ex 98, 1-(7-((1-(methylsulfonyl)piperidin-4-yl)amino)-2,6-naphthyridine-1-carbonyl)piperidine-3-carbonitrile] | – |
| 25 to 250 | > 250 | C=CS(=O)(=O)N1CCC(Nc2cc3c(N4CCC(OC(C)=O)C4)nccc3cn2)CC1 (racemic) [Ex 104, 1-(7-((1-(vinylsulfonyl)piperidin-4-yl)amino)-2,6-naphthyridin-1-yl)pyrrolidin-3-yl acetate] | – |
| 25 to 250 | > 250 | N#CC1CCN(c2nccc3cnc(Nc4cccc(C(=O)NC5CCSC5=O)c4)cc23)CC1 (racemic) [Ex 112, 3-((5-(4-cyanopiperidin-1-yl)-2,6-naphthyridin-3-yl)amino)-N-(2-oxotetrahydrothiophen-3-yl)benzamide] | – |
| 25 to 250 | > 250 | C=CS(=O)(=O)c1ccc(Nc2cc3c(N4CCCC(C#N)C4)nccc3cn2)cc1 (racemic) [Ex 123, 1-(7-((4-(vinylsulfonyl)phenyl)amino)-2,6-naphthyridin-1-yl)piperidine-3-carbonitrile] | – |
| – | – | CS(=O)(=O)c1ccc(Nc2cc3c(C4CCC(C#N)CC4)nccc3cn2)cc1 (racemic) [Ex 142, 4-(7-((4-(methylsulfonyl)phenyl)amino)-2,6-naphthyridin-1-yl)cyclohexane-1-carbonitrile] | IC50 [1, 5]: < 25 nM; IC50 [2, 6]: 25 to 250 nM |
| 25 to 250 | > 250 | COC(=O)C1CSC(c2nccc3cnc(Nc4ccc(S(C)(=O)=O)cc4)cc23)=N1 (racemic) [Ex 169, methyl 2-(7-((4-(methylsulfonyl)phenyl)amino)-2,6-naphthyridin-1-yl)-4,5-dihydrothiazole-4-carboxylate] | – |
| 25 to 250 | > 250 | Cc1c(-c2nccc3cnc(Nc4ccc(S(C)(=O)=O)cc4)cc23)ccc2nn(CC3CCNC3)cc12 (racemic) [Ex 195, 5-(4-methyl-2-(pyrrolidin-3-ylmethyl)-2H-indazol-5-yl)-N-(4-(methylsulfonyl)phenyl)-2,6-naphthyridin-3-amine] | – |
| 25 to 250 | > 250 | CS(=O)(=O)c1ccc(Nc2cc3c([C@@H]4CCC[C@H](O)C4)nccc3cn2)cc1 (racemic) [Ex 203, (1S,3R)-3-(7-((4-(methylsulfonyl)phenyl)amino)-2,6-naphthyridin-1-yl)cyclohexan-1-ol (cis, racemic)] | – |
| 25 to 250 | > 250 | CS(=O)(=O)c1ccc(Nc2cc3c(C4CCCC(=O)C4)nccc3cn2)cc1 (racemic) [Ex 204, 3-(7-((4-(methylsulfonyl)phenyl)amino)-2,6-naphthyridin-1-yl)cyclohexan-1-one] | – |
| 25 to 250 | > 250 | C=CS(=O)(=O)c1ccc(Nc2cc3c(N4CCC(O)C4)nccc3cn2)cc1 (racemic) [Ex 211, 1-(7-((4-(vinylsulfonyl)phenyl)amino)-2,6-naphthyridin-1-yl)pyrrolidin-3-ol] | – |
| 25 to 250 | > 250 | CS(=O)(=O)N1CCC(Nc2cc3c(N4CCC(C(N)=O)C4)nccc3cn2)CC1 (racemic) [Ex 260, 1-(7-((1-(methylsulfonyl)piperidin-4-yl)amino)-2,6-naphthyridin-1-yl)pyrrolidine-3-carboxamide] | – |
| – | – | COc1cc(S(=N)(=O)C2COC2)ccc1Nc1cc2c(C#Cc3ccc4c(c3)NC(=O)C43CC3)nccc2cn1 (single isomer, unassigned) [Ex 324, 6'-((7-((2-methoxy-4-(oxetane-3-sulfonimidoyl)phenyl)amino)-2,6-naphthyridin-1-yl)ethynyl)spiro[cyclopropane-1,3'-indolin]-2'-one] | IC50 [2, 6]: 25 to 250 nM |
| – | – | CC(C)S(=N)(=O)c1ccc(Nc2cc3c(C#Cc4ccc5c(c4)NC(=O)C5(C)CO)nccc3cn2)cc1 (single isomer, unassigned) [Ex 331, 3-(hydroxymethyl)-3-methyl-6-((7-((4-(propan-2-ylsulfonimidoyl)phenyl)amino)-2,6-naphthyridin-1-yl)ethynyl)indolin-2-one] | IC50 ([2]; <25 nM, read-out: CDK1/CCNB IC50 <25 nM): < 25 nM |
| – | – | CCC1(CC)C(=O)Nc2cc(C#Cc3nccc4cnc(Nc5ccc(S(=N)(=O)CC)cc5)cc34)ccc21 (single isomer, unassigned) [Ex 428, 3,3-diethyl-6-((7-((4-(ethylsulfonimidoyl)phenyl)amino)-2,6-naphthyridin-1-yl)ethynyl)indolin-2-one] | IC50 ([2]; x = IC50 >250 nM, read-out: CDK1/CCNB IC50 (>250 nM column)): > 250 nM |
| – | – | CCN(C)c1nccc2cnc(NC3CCN(S(C)(=O)=O)CC3)cc12 [Ex 38, N1-ethyl-N1-methyl-N7-(1-(methylsulfonyl)piperidin-4-yl)-2,6-naphthyridine-1,7-diamine] | IC50 [1, 5]: < 25 nM; IC50 [2, 6]: 25 to 250 nM |
| 25 to 250 | > 250 | CS(=O)(=O)N1CCC(Nc2cc3c(N(CO)Cc4ccccc4)nccc3cn2)CC1 [Ex 53, (benzyl(7-((1-(methylsulfonyl)piperidin-4-yl)amino)-2,6-naphthyridin-1-yl)amino)methanol] | – |
| 25 to 250 | > 250 | CC1(O)CCN(c2nccc3cnc(NC4CCN(S(C)(=O)=O)CC4)cc23)CC1 [Ex 54, 4-methyl-1-(7-((1-(methylsulfonyl)piperidin-4-yl)amino)-2,6-naphthyridin-1-yl)piperidin-4-ol] | – |
| 25 to 250 | > 250 | CN(Cc1ccccc1)C1CCN(c2nccc3cnc(NC4CCN(S(C)(=O)=O)CC4)cc23)CC1 [Ex 55, 5-(4-(benzyl(methyl)amino)piperidin-1-yl)-N-(1-(methylsulfonyl)piperidin-4-yl)-2,6-naphthyridin-3-amine] | – |
| – | > 250 | CS(=O)(=O)N1CCC(Nc2cc3c(N4CCS(=O)(=O)CC4)nccc3cn2)CC1 [Ex 59, 4-(7-((1-(methylsulfonyl)piperidin-4-yl)amino)-2,6-naphthyridin-1-yl)thiomorpholine 1,1-dioxide] | IC50 ([1]; >250 nM marked x, read-out: CDK2/CCNE IC50 >250 nM): > 250 nM |
| 25 to 250 | > 250 | CS(=O)(=O)N1CCC(Nc2cc3c(N4CCN(CCO)CC4)nccc3cn2)CC1 [Ex 60, 2-(4-(7-((1-(methylsulfonyl)piperidin-4-yl)amino)-2,6-naphthyridin-1-yl)piperazin-1-yl)ethan-1-ol] | – |
| – | > 250 | CS(=O)(=O)N1CCC(Nc2cc3c(C(=O)N4CCCCC4)nccc3cn2)CC1 [Ex 97, (7-((1-(methylsulfonyl)piperidin-4-yl)amino)-2,6-naphthyridin-1-yl)(piperidin-1-yl)methanone] | – |
